Source: ChEMBL document CHEMBL5034001 (J Med Chem, 2021)
Calls of active or inactive are those of the source. No cut-off for these calls is given here.

Assays:
[1] = system: Receptor-type tyrosine-protein kinase FLT3 (Homo sapiens), P36888 [D835V]; assay: Binding affinity to human partial length FLT3 D835V mutant (V592 to Y969 residues) expressed in bacterial expression system assessed as residual binding level at 100 nM by Kinomescan method relative to control
[2] = molecular target: Serine/threonine-protein kinase PLK4 (Homo sapiens) (UniProt O00444); assay: Binding affinity to wild-type human partial length PLK4 (M1 to S273 residues) expressed in mammalian expression system assessed as residual binding level at 100 nM by Kinomescan method relative to control
Serine/threonine-protein kinase PLK4 (Homo sapiens), sequence (O00444 whole entry, the tested form may be a part): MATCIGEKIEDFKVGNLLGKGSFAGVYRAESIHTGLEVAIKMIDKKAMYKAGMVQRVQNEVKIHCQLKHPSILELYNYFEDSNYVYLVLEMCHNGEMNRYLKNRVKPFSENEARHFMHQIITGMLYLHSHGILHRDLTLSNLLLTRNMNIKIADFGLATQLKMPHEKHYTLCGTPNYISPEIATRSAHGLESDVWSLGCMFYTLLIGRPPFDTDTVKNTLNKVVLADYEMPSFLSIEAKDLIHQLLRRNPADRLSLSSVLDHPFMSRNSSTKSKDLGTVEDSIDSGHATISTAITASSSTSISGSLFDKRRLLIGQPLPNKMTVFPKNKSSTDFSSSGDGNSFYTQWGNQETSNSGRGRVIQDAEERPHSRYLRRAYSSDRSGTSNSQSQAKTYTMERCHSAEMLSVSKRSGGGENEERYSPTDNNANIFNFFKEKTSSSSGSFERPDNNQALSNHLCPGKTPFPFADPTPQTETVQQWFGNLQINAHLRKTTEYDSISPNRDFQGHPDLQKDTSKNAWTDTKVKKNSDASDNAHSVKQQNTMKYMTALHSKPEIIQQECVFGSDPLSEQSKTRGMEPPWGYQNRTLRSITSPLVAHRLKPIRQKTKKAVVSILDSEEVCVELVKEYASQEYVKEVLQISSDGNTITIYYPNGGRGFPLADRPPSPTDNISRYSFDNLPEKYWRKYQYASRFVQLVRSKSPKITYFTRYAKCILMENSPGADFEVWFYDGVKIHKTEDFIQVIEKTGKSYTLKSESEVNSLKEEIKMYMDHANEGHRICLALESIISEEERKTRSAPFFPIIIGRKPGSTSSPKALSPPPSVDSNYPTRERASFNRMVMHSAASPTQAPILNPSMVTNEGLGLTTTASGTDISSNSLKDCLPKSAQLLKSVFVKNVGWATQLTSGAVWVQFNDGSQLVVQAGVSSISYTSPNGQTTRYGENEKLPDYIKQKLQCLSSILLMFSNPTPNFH

[3] = molecular target: Focal adhesion kinase 1 (Homo sapiens) (UniProt Q05397); assay: Induction of FAK degradation in human Calu-1 cells at 1 nM after 16 hrs by Western blot analysis; type: cell-based
Focal adhesion kinase 1 (Homo sapiens), sequence (Q05397 2-1052 limits assumed): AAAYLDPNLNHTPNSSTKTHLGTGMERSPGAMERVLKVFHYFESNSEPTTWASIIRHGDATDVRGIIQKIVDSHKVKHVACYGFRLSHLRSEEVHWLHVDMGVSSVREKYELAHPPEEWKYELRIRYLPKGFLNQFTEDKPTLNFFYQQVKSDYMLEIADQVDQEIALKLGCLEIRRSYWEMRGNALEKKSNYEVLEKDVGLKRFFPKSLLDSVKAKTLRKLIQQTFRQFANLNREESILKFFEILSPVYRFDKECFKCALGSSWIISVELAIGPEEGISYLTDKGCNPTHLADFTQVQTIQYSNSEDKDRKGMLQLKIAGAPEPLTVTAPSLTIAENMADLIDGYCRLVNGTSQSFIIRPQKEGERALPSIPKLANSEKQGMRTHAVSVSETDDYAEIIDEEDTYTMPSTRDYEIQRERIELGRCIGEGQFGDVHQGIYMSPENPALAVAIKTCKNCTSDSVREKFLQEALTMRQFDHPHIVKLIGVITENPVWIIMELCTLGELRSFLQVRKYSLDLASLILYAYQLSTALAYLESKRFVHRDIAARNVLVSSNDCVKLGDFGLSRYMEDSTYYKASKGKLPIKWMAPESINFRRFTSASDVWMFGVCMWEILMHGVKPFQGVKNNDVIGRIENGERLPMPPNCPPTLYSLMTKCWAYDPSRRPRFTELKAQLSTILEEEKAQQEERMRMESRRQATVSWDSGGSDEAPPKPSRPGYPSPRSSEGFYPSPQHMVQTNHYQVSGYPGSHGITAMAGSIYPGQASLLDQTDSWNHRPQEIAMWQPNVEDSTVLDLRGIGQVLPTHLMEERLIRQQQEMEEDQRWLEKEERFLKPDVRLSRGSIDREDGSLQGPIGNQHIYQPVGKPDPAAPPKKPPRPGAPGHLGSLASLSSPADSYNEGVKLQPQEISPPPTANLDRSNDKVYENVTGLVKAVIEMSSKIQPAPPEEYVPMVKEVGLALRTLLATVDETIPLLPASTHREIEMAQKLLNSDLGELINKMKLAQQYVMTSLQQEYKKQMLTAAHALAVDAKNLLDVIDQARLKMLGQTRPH

[4] = Metabolic stability in Sprague-Dawley rat liver microsomes preincubated for 10 mins followed by NADPH regenerating system addition and measured after 10 mins by LC-MS/MS analysis; type: ADME, Microsome; settings: time 20 min, read-out: Stability
[5] = molecular target: Activated CDC42 kinase 1 (Homo sapiens) (UniProt Q07912); assay: Binding affinity to wild-type human partial length TNK2 (S159 to D474 residues) expressed in bacterial expression system assessed as residual binding level at 100 nM by Kinomescan method relative to control
Calu-1 [6] = assay: Down regulation of RSK1 in human Calu-1 cells at 1 to 1000 nM after 16 hrs by Western blot analysis; type: functional, cell-based; settings: dose 1-1000 nM
Calu-1 [7] = assay: Down regulation of FAK in human Calu-1 cells at 1 to 1000 nM after 16 hrs by Western blot analysis; type: functional, cell-based; settings: dose 1-1000 nM
A549 [8] = assay: Down regulation of FAK in human A549 cells at 1 to 1000 nM after 16 hrs by Western blot analysis; type: functional, cell-based; settings: dose 1-1000 nM
SR = assay: Induction of G1 cell cycle arrest in human SR cells at 100 nM after 24 to 48 hrs; type: functional, cell-based; settings: time 24-48 hrs
[9] = molecular target: Focal adhesion kinase 1 (Homo sapiens) (UniProt Q05397); assay: Induction of FAK degradation in human MDA-MB-231 cells at 10 nM treated for 16 hrs followed by compound washout and measured after 48 hrs by Western blot analysis; type: cell-based
Calu-1 [10] = assay: Inhibition of cell migration in human Calu-1 cells at 100 nM after 12 to 24 hrs by wound healing assay; type: functional, cell-based; settings: time lower […], time upper 24.0 hrs
[11] = molecular target: Tyrosine-protein kinase receptor UFO (Homo sapiens) (UniProt P30530); assay: Binding affinity to wild-type human partial length AXL (R497 to Y821 residues) expressed in bacterial expression system assessed as residual binding level at 100 nM by Kinomescan method relative to control
[12] = molecular target: Ribosomal protein S6 kinase alpha-3 (Homo sapiens) (UniProt P51812); assay: Binding affinity to wild-type human partial length N- terminal RSK2 kinase domain 1 (M1 to D394 residues) expressed in mammalian expression system assessed as residual binding level at 100 nM by Kinomescan method relative to control
Calu-1 [13] = assay: Induction of G1 cell cycle arrest in human Calu-1 cells at 100 nM after 24 to 48 hrs; type: functional, cell-based; settings: time 24-48 hrs
[14] = molecular target: Serine/threonine-protein kinase Chk2 (Homo sapiens) (UniProt O96017); assay: Binding affinity to wild-type human partial length CHEK2 (S253 to E574 residues) expressed in bacterial expression system assessed as residual binding level at 100 nM by Kinomescan method relative to control
[15] = system: Receptor-type tyrosine-protein kinase FLT3 (Homo sapiens), P36888 [UNDEFINED MUTATION]; assay: Binding affinity to human partial length FLT3 ITD/F691L double mutant expressed in bacterial expression system assessed as residual binding level at 100 nM by Kinomescan method relative to control
[16] = Toxicity in NU/NU mouse at 100 mg/kg; type: organism-based; settings: in vivo
MDA-MB-231 [17] = assay: Induction of G1 cell cycle arrest in human MDA-MB-231 cells at 100 nM after 24 to 48 hrs; type: functional, cell-based; settings: time 24-48 hrs
[18] = molecular target: Protein-tyrosine kinase 2-beta (Homo sapiens) (UniProt Q14289); assay: Induction of PYK2 degradation in human MDA-MB-231 cells at 10 nM after 1 to 2 hrs by Western blot analysis; type: cell-based; settings: time 1-2 hrs
Protein-tyrosine kinase 2-beta (Homo sapiens), sequence (Q14289 whole entry, looked up, the tested form may be a part): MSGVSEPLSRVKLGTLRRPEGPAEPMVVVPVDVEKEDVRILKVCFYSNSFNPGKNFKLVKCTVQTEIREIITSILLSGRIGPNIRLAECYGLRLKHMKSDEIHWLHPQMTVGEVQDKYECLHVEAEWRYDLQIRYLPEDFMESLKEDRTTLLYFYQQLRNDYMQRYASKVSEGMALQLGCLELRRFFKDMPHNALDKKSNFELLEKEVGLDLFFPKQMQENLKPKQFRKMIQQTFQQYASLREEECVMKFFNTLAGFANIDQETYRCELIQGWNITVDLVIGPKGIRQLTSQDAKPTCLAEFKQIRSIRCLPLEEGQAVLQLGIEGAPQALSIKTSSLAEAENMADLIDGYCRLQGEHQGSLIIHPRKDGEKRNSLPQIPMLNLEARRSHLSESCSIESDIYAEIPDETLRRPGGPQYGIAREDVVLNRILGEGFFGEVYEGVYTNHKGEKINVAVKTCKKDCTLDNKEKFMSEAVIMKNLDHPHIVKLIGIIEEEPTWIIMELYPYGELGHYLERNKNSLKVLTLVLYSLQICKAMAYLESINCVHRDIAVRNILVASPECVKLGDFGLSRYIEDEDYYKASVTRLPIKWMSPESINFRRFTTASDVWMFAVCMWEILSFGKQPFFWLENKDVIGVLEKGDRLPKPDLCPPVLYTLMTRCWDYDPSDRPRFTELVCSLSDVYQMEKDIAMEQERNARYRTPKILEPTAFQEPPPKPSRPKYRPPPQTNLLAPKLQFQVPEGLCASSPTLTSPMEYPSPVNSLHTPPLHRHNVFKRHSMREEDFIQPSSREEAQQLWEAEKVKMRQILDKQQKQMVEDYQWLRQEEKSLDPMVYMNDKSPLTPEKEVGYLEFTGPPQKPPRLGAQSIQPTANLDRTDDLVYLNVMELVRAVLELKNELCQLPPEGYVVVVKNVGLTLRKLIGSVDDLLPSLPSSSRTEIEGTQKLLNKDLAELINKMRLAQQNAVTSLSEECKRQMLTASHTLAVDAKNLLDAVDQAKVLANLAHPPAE

MDA-MB-231 [19] = assay: Inhibition of cell migration in human MDA-MB-231 cells assessed as wound confluence ratio at 10 nM after 48 hrs by wound healing assay; type: functional
A549 [20] = assay: Down regulation of RSK1 in human A549 cells at 1 to 1000 nM after 16 hrs by Western blot analysis; type: functional, cell-based; settings: dose 1-1000 nM
[21] = molecular target: T1, ALK tyrosine kinase receptor (Homo sapiens, UniProt Q9UM73); assay: Binding affinity to wild-type human partial length ALK (I1088 to E1409 residues) expressed in mammalian expression system assessed as residual binding level at 100 nM by Kinomescan method relative to control
T1 sequence (Q9UM73 19-1620 limits assumed): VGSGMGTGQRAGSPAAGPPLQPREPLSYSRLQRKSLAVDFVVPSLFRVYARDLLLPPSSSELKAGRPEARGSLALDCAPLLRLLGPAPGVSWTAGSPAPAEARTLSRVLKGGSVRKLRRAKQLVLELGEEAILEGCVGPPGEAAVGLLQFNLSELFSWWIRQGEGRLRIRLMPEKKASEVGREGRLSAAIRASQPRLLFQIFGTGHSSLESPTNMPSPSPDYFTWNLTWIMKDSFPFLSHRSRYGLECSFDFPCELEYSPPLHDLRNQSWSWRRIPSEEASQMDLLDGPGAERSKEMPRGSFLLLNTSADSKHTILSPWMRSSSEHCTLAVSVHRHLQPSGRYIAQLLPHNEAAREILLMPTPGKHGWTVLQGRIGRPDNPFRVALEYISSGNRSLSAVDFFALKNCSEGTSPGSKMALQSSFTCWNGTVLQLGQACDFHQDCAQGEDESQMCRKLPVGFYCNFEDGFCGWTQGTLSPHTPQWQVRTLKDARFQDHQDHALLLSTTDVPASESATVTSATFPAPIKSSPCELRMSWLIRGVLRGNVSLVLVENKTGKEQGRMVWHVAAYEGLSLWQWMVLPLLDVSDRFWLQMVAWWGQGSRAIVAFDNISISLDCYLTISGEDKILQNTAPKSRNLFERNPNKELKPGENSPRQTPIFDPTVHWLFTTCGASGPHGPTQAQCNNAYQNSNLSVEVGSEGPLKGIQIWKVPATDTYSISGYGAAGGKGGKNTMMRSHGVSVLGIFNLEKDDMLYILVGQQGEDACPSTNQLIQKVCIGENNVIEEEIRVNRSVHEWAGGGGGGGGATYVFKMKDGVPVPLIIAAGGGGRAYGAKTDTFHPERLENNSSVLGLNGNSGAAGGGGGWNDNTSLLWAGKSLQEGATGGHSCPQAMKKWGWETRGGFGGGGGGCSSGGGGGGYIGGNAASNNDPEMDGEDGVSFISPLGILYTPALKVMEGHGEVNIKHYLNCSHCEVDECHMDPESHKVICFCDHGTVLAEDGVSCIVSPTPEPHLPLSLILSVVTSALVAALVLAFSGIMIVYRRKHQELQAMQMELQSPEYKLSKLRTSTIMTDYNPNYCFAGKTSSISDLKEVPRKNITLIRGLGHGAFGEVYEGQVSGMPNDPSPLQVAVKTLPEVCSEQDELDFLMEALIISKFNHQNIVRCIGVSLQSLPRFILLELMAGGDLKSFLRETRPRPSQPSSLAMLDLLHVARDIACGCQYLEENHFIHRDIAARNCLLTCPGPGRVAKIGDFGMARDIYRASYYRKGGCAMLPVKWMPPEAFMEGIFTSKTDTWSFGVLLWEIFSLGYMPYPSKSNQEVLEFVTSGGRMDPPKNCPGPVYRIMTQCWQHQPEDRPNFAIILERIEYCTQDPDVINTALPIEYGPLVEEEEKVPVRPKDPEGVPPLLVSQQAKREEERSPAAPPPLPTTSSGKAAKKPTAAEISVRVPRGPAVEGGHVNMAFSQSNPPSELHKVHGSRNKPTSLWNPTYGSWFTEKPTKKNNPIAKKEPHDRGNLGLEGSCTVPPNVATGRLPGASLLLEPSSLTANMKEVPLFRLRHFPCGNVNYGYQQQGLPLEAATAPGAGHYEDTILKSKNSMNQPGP

[22] = molecular target: NPM/ALK (Nucleophosmin/ALK tyrosine kinase receptor) (Homo sapiens) (UniProt Q9UM73+P06748); assay: Induction of NPM-ALK degradation in human SR cells at 0.1 to 50 nM by Western blot analysis; type: cell-based; settings: dose 0.1-50 nM
[23] = molecular target: Serine/threonine-protein kinase SBK1 (Homo sapiens) (UniProt Q52WX2); assay: Binding affinity to wild-type human partial length SBK1 (P23 to P348 residues) expressed in mammalian expression system assessed as residual binding level at 100 nM by Kinomescan method relative to control
Serine/threonine-protein kinase SBK1 (Homo sapiens), sequence (Q52WX2 whole entry, the tested form may be a part): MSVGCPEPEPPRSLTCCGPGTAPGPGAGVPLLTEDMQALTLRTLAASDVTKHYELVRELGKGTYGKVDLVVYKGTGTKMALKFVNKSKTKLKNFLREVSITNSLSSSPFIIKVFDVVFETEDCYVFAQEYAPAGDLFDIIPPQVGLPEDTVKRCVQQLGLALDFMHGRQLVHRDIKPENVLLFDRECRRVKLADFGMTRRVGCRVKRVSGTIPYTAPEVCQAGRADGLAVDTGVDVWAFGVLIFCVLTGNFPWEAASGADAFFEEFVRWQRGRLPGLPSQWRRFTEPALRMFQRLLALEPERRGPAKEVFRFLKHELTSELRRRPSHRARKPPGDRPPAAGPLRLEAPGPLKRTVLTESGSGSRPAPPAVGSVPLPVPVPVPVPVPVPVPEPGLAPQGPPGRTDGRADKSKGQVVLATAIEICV

[24] = molecular target: T1, ALK tyrosine kinase receptor; assay: Induction of ALK degradation in human SR cells at 10 uM after 16 hrs by Western blot analysis; type: cell-based
[25] = molecular target: Focal adhesion kinase 1 (Homo sapiens) (UniProt Q05397); assay: Induction of FAK degradation in human A549 cells at 1 nM after 16 hrs by Western blot analysis; type: cell-based
[26] = molecular target: T1, ALK tyrosine kinase receptor; assay: Induction of ALK degradation in human SR cells at 100 nM after 8 to 24 hrs by Western blot analysis; type: cell-based; settings: time 8-24 hrs
[27] = molecular target: Signal transducer and activator of transcription 3 (Homo sapiens) (UniProt P40763); assay: Inhibition of STAT3 downstream signalling in human NCI-H2228 cells assessed as reduction in pSTAT3 level at 1 to 1000 nM by Western blot analysis; type: cell-based; settings: dose 1-1000 nM
[28] = molecular target: Protein-tyrosine kinase 2-beta (Homo sapiens) (UniProt Q14289); assay: Induction of PYK2 degradation in human MDA-MB-231 cells at 10 nM treated for 16 hrs followed by compound washout and measured after 48 hrs by Western blot analysis; type: cell-based
[29] = system: Receptor-type tyrosine-protein kinase FLT3 (Homo sapiens), P36888 [D835Y]; assay: Binding affinity to human partial length FLT3 D835Y mutant (Q580 to Y969 residues) expressed in bacterial expression system assessed as residual binding level at 100 nM by Kinomescan method relative to control
[30] = system: Receptor-type tyrosine-protein kinase FLT3 (Homo sapiens), P36888 [N841I]; assay: Binding affinity to human partial length FLT3 N841I mutant (V592 to Y969 residues) expressed in bacterial expression system assessed as residual binding level at 100 nM by Kinomescan method relative to control
[31] = molecular target: Protein-tyrosine kinase 2-beta (Homo sapiens) (UniProt Q14289); assay: Binding affinity to wild-type human full length PYK2 (M1 to E967 residues) expressed in bacterial expression system assessed as residual binding level at 100 nM by Kinomescan method relative to control

COc1cc(N2CCC(N3CCN(C(=O)CNc4cccc5c4C(=O)N(C4CCC(=O)NC4=O)C5=O)CC3)CC2)ccc1Nc1ncc(Cl)c(Nc2ccccc2P(C)(C)=O)n1 (configuration not stated)
Activity [1]: 0% | Activity [2]: 8.3% | Activity [3]: Active | microsomal CLint [4]: < 9.6 µL/min/mg | Activity [5]: 2% | Activity (Calu-1 [6]): Active | Activity (Calu-1 [7]): Active | Activity (A549 [8]): Active | Activity (SR): Active | Activity [9]: inactive | inhibition (Calu-1 [10]): Active | Activity [11]: 9.5% | Activity [12]: 2.1% | Activity (Calu-1 [13]): Active | Activity [14]: 0% | Activity [15]: 0% | Activity [16]: Non-Toxic | Activity (MDA-MB-231 [17]): Active | Activity [18]: Active | inhibition at 0.01 µM (MDA-MB-231 [19]): 48% | Activity (A549 [20]): Active | Activity [21]: 5.3% | Activity [22]: Active | Activity [23]: 3.9% | Activity [24]: Active | Activity [25]: Active | Activity [26]: Active | inhibition [27]: inactive | Activity [28]: inactive | Activity [29]: 8.2% | Activity [30]: 4% | Activity [31]: 3.5%
